Earlier results on two compounds are cited in US7700778B2, “Acylated piperidine derivatives as melanocortin-4 receptor agonists” (Merck Sharp & Dohme Corp., priority 2001, dated 2010).

In series [1] the test system is males with psychogenic erectile dysfunction.
The conditions of series [2]: in vivo, po.

`Cc1ccc(N(CC2=NCCN2)c2cccc(O)c2)cc1` [phentolamine]: in the series on men (after an oral dose), the duration of effect is 2 h and the onset of action is 5 to 30 min. Further, in the series on men (oral), the “share of men/patients in whom effective (adequate response)” value is on record as 35-40%.
For “Ac-Nle-c[Asp-His-DPhe-Arg-Trp-Lys]-NH2 [MT-II]”, in series [1] (in vivo), the duration of action entry is “approximately 2.5 hours” and the “time to onset of erection” value was 10 to 20 min. For the same compound, in series [1] (injected intramuscularly or subcutaneously), the response rate is recorded as 75%. In addition, in series [2], the “absorption into the systemic circulation” value was “not absorbed into the systemic circulation”.
